Assay [1] has as its target T1, IDO (Homo sapiens (Human), UniProt P14902). The assay can be described thus: hIDO biochemical coupled assay. Conditions: 45 μM L-tryptophan. Here is the method: (§1) Exemplary compounds disclosed herein were prepared, and tested to determine their effect as IDO and/or TDO inhibitors. Two different assays were employed: 1. a cell-based assay for detecting the effect of test compounds on kynurenine production in two different cancer cell types. This assay utilized cancer cells which expressed either TDO or IDO and as such was used as a means of testing compound activity at these two enzymes in a cell-based context. 2. a TDO and IDO biochemical coupled assay which utilized recombinantly produced and purified TDO and IDO enzymes in combination with the enzyme formamidase. This coupled enzyme system allowed conversion of N-formylkynurenine produced by TDO or IDO activity to kynurenine which was then quantified by fluorescence following addition of Erhlich's Reagent. The protocols for these are set out below.
(§2) TDO and IDO Biochemical Coupled Assay
(§3) Recombinant human IDO or TDO was incubated in 50 mM KPO4 (pH 7.0), 0.5 mM EGTA, 0.5 mM EDTA, 0.05% Triton™ X100, 20 mM ascorbate, 10 μM methylene blue, 500 U/ml catalase, 50 μg/ml KynB (kynurenine formamidase). […] After incubation for 17 minutes at room temperature the reactions were stopped by the addition of Erhlich's reagent and incubated at room temperature for 5 minutes before the fluorescence was read.

For assay [2], the target named is T2, TDO (Homo sapiens (Human), UniProt P48775). The assay can be described thus: A172 (TDO) cell based assay for detection of kynurenine. Conditions: A172 cells, 48 hours, read-out: pIC50 A172 (TDO) cell based assay (converted). Here is the method: as §1
(§4) A172 and SKOV3 Cell Based Assays for Detection of Kynurenine Produced by TDO and/or IDO
(§5) A172 (human glioblastoma) and SKOV3 (human ovarian adenocarcinoma) cells were seeded in a 96 well plate at 30,000 or 40,000 cells per well respectively in phenol red-free RPMI supplemented with 10% FCS, 2 mM L-glutamine and 500 μM L-tryptophan. IDO expression was induced in the SKOV3 cells by the addition of 500 ng/ml IFN-γ. Cells were incubated at 37° C. with or without the addition of test compound. After 48 hours, the cells were removed by centrifugation and Erhlich's reagent was added to the supernatant.

In assay [3] the target is T1, IDO. In words: SKOV3 (IDO) cell based assay for detection of kynurenine. Conditions: SKOV3 cells, IDO induced by IFN-γ, 48 hours, read-out: pIC50 SKOV3 (IDO) cell based assay (converted). The protocol:
as §1, §4, §5

In assay [4] the target is T2, TDO. The assay can be described thus: hTDO biochemical coupled assay. Conditions: 330 μM L-tryptophan. Here is the method:
as §1, §2, §3

Molecules are shown by their SMILES. Bounds are passed on as bounds.

T2 sequence (P48775 whole entry): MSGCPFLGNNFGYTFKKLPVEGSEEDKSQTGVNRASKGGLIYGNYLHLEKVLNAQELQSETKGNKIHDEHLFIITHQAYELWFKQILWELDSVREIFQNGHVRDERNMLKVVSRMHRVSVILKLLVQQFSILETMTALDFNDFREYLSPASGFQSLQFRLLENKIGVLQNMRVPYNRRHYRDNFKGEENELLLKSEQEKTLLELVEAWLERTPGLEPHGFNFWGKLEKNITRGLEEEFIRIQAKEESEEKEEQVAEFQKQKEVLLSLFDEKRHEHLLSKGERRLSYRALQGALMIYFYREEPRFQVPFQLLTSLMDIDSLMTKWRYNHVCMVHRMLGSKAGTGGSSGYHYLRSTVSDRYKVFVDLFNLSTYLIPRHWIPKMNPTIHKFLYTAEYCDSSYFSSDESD
T1 sequence (P14902 whole entry): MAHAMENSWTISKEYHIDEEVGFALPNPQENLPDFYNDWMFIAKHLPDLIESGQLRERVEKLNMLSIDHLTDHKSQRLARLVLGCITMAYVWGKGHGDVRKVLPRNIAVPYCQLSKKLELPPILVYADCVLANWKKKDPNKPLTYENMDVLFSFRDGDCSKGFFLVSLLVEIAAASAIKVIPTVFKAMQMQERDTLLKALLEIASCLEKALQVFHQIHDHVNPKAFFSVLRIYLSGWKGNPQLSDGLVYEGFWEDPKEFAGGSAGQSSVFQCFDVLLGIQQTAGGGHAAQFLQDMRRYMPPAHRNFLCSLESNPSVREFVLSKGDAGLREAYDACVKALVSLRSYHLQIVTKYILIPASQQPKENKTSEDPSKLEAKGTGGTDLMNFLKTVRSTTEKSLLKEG

Turning to `O=C1NC(=O)C2(CCN(c3cc(C(F)(F)F)cc4cncn34)CC2)N1` [Example 1, 8-(7-(Trifluoromethyl)imidazo[1,5-a]pyridin-5-yl)-1,3,8-triazaspiro[4.5]decane-2,4-dione], the “pIC50 hIDO biochemical coupled assay” value at IDO [1] is given as 7.53. Further, the results for the IC50 at TDO [2] and at IDO [3] were over 10 µM and 0.617 µM, respectively. Moreover, the “pIC50 hTDO biochemical coupled assay” value at TDO [4] came to 5.6.

In the case of `O=C1NC(=O)C2(CCN(c3cc(Br)cc4cncn34)CC2)N1` [Example 2, 8-(7-Bromoimidazo[1,5-a]pyridin-5-yl)-1,3,8-triazaspiro[4.5]decane-2,4-dione], the “pIC50 hIDO biochemical coupled assay” value on IDO [1] is listed as 7.19. Moreover, the IC50 on TDO [2] is over 10 µM; on IDO [3], 0.562 µM. For the same molecule, the “pIC50 hTDO biochemical coupled assay” value on TDO [4] is recorded as 6.29.

Turning to `O=C1NC(=O)C2(CCN(c3cc(Cl)cc4cncn34)CC2)N1` [Example 3, 8-(7-Chloroimidazo[1,5-a]pyridin-5-yl)-1,3,8-triazaspiro[4.5]decane-2,4-dione], the “pIC50 hIDO biochemical coupled assay” value at IDO [1] is 6.55. Also, the IC50 on TDO [2] is over 10 µM; on IDO [3], 1.41 µM. Also, the “pIC50 hTDO biochemical coupled assay” value at TDO [4] turned out to be 5.85.

`O=C1NC(=O)C2(CCN(c3cc(C(F)(F)F)cn4cncc34)CC2)N1` [Example 4, 8-(6-(Trifluoromethyl)imidazo[1,5-a]pyridin-8-yl)-1,3,8-triazaspiro[4.5]decane-2,4-dione]: the “pIC50 hIDO biochemical coupled assay” value on IDO [1] is recorded as 5.99. Further, the figures for the IC50 on TDO [2] and at IDO [3] were over 10 µM and 4.79 µM, respectively. Moreover, the “pIC50 hTDO biochemical coupled assay” value on TDO [4] is on record as 5.84.

As to `CN1C(=O)NC2(CCN(c3cc(C(F)(F)F)cc4cncn34)CC2)C1=O` [Example 6, 3-Methyl-8-(7-(trifluoromethyl)imidazo[1,5-a]pyridin-5-yl)-1,3,8-triazaspiro[4.5]decane-2,4-dione], the “pIC50 hIDO biochemical coupled assay” value on IDO [1] is reported as 5.89. Further, the values for the IC50 at TDO [2] and on IDO [3] were over 10 µM and 6.17 µM, respectively. In addition, on TDO [4], the “pIC50 hTDO biochemical coupled assay” value was determined as 5.74.

With `O=C1NC2(CCN(c3cc(C(F)(F)F)cc4cncn34)CC2)C(=O)N1CC1CCOCC1` [Example 7, 3-((Tetrahydro-2H-pyran-4-yl)methyl)-8-(7-(trifluoromethyl)imidazo[1,5-a]pyridin-5-yl)-1,3,8-triazaspiro[4.5]decane-2,4-dione], the “pIC50 hIDO biochemical coupled assay” value at IDO [1] is 5.92. Moreover, the results for the IC50 at TDO [2] and at IDO [3] were 10 µM and 3.63 µM, respectively. The “pIC50 hTDO biochemical coupled assay” value on TDO [4] stood at 5.4.

For the molecule `CC1(C)CN(c2cc(Cl)cc3cncn23)CCC12NC(=O)NC2=O` (stereo not shown) [Example 8, 8-(7-Chloroimidazo[1,5-a]pyridin-5-yl)-6,6-dimethyl-1,3,8-triazaspiro[4.5]decane-2,4-dione], the IC50 on TDO [2] was 7.94 µM; at IDO [3] it was 0.2 µM.

With `O=C1NC2(CCN(c3cc(C(F)(F)F)cc4cncn34)CC2)C(=O)N1c1ccccc1` [Example 9, 3-Phenyl-8-(7-(trifluoromethyl)imidazo[1,5-a]pyridin-5-yl)-1,3,8-triazaspiro[4.5]decane-2,4-dione], the “pIC50 hIDO biochemical coupled assay” value at IDO [1] was found to be 6.58. Further, the IC50 was over 10 µM at TDO [2] and 1.74 µM at IDO [3]. Further, the “pIC50 hTDO biochemical coupled assay” value at TDO [4] is reported as 5.78.

With `CN1C(=O)NC2(CCN(c3cc(C(F)(F)F)cc4cncn34)CC2(C)C)C1=O` (stereo not shown) [Example 10, 3,6,6-Trimethyl-8-(7-(trifluoromethyl)imidazo[1,5-a]pyridin-5-yl)-1,3,8-triazaspiro[4.5]decane-2,4-dione], at IDO [1], the “pIC50 hIDO biochemical coupled assay” value was found to be 6.2. The IC50 was over 10 µM on TDO [2] and 7.76 µM at IDO [3]. The “pIC50 hTDO biochemical coupled assay” value at TDO [4] is 5.57.

Turning to `CC1(C)CN(c2cc(Cl)cc3cncn23)CCC12NC(=O)NC2=O` (stereo not shown) [Example 11, 8-(7-Chloroimidazo[1,5-a]pyridin-5-yl)-6,6-dimethyl-1,3,8-triazaspiro[4.5]decane-2,4-dione], at IDO [1], the “pIC50 hIDO biochemical coupled assay” value is 6.99. Moreover, the results for the IC50 at TDO [2] and on IDO [3] were 2.09 µM and 3.72 µM, respectively. The “pIC50 hTDO biochemical coupled assay” value at TDO [4] is recorded as 6.33.

As to `CC1(C)CN(c2cc(C(F)(F)F)cn3cncc23)CCC12NC(=O)NC2=O` (stereo not shown) [Example 12, 6,6-Dimethyl-8-(6-(trifluoromethyl)imidazo[1,5-a]pyridin-8-yl)-1,3,8-triazaspiro[4.5]decane-2,4-dione], on IDO [1], the “pIC50 hIDO biochemical coupled assay” value was determined as 5.74. For the same molecule, the IC50 is 0.661 µM at TDO [2] and 1.17 µM on IDO [3]. The “pIC50 hTDO biochemical coupled assay” value on TDO [4] turned out to be 6.1.

With `O=C1CC2(CCN(c3cc(C(F)(F)F)cc4cncn34)CC2)C(=O)N1` [Example 13, 8-(7-(trifluoromethyl)imidazo[1,5-a]pyridin-5-yl)-2,8-diazaspiro[4.5]decane-1,3-dione], the “pIC50 hIDO biochemical coupled assay” value at IDO [1] is 6.53. Besides, the IC50 on TDO [2] was over 10 µM; at IDO [3], 1.26 µM. Further, at TDO [4], the “pIC50 hTDO biochemical coupled assay” value was determined as 5.77.

For the molecule `CC1(C)CN(c2cc(C(F)(F)F)cc3cncn23)CCC12NC(=O)N(CC1CCOCC1)C2=O` (stereo not shown) [Example 14, 6,6-dimethyl-3-((tetrahydro-2H-pyran-4-yl)methyl)-8-(7-(trifluoromethyl)imidazo[1,5-a]pyridin-5-yl)-1,3,8-triazaspiro[4.5]decane-2,4-dione], the “pIC50 hIDO biochemical coupled assay” value on IDO [1] is 5.92. In addition, the IC50 is over 10 µM on TDO [2] and 4.68 µM at IDO [3]. In addition, on TDO [4], the “pIC50 hTDO biochemical coupled assay” value is on record as 4.78.

For the molecule `CC1(C)CN(c2cc(C(F)(F)F)cc3cncn23)CCC12NC(=O)N(c1ccccc1)C2=O` (stereo not shown) [Example 15, 6,6-Dimethyl-3-phenyl-8-(7-(trifluoromethyl)imidazo[1,5-a]pyridin-5-yl)-1,3,8-triazaspiro[4.5]decane-2,4-dione], on IDO [1], the “pIC50 hIDO biochemical coupled assay” value is reported as 5.66. Further, the IC50 was over 10 µM on TDO [2] and 5.62 µM on IDO [3]. Also, the “pIC50 hTDO biochemical coupled assay” value on TDO [4] turned out to be 4.42.

With `CC1(C)CN(c2cc(Br)cc3cncn23)CCC12NC(=O)NC2=O` (stereo not shown) [Example 16, 8-(7-Bromoimidazo[1,5-a]pyridin-5-yl)-6,6-dimethyl-1,3,8-triazaspiro[4.5]decane-2,4-dione], on IDO [1], the “pIC50 hIDO biochemical coupled assay” value amounted to 7.06. For the same molecule, the IC50 on TDO [2] is 7.94 µM; on IDO [3] it was 0.135 µM. Moreover, the “pIC50 hTDO biochemical coupled assay” value on TDO [4] stood at 5.92.

The record behind these values is US11096930B2, “Substituted imidazopyridine compounds as inhibitors of indoleamine 2,3-dioxygenase and/or tryptophan-2,3-dioxygenase” (IOMet Pharma Ltd., priority 2016, dated 2021).
